Where two headings read alike, the source gives them in different places.
How the values were obtained:
[1] = target: T1, Drosophila OR71a (Drosophila melanogaster, UniProt Q9VUK5); test: Calcium ion fluorescence (GCaMP6) assay, OR71a stable HEK293 cell line; assay type: cell-based; settings: for activation at 1 µM / activation at 10 µM / activation at 100 µM: HEK293, read-out: OR71a response (VUAA1-normalized response); for Average response / OR71a response (VUAA1-normalized) at 1 μM / OR71a response (VUAA1-normalized) at 10 μM / OR71a response (VUAA1-normalized) at 100 μM: OR71a cell line; for Average response: VUAA1-normalized response, mean of biological replicates; for OR71a Average response (VUAA1-normalized): 50 μM VUAA1 = 1; for OR71a response (VUAA1-normalized) at 1 μM: VOC concentration 1 μM; for OR71a response (VUAA1-normalized) at 10 μM: VOC concentration 10 μM; for OR71a response (VUAA1-normalized) at 100 μM: VOC concentration 100 μM
T1 construct: expressed in transfected cells
T1 sequence (Q9VUK5 1-378): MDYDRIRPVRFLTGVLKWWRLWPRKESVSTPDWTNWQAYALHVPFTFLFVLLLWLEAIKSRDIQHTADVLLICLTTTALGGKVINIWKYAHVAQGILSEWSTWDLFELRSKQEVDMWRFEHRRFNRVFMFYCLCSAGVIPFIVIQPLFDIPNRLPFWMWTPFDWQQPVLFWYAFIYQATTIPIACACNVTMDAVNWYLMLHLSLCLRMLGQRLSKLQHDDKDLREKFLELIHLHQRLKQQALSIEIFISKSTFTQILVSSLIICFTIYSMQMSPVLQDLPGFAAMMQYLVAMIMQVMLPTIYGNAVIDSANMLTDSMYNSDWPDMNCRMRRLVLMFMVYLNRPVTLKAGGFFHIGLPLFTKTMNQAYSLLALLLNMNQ
T1 sequence (Q9VNB5 1-486 partner): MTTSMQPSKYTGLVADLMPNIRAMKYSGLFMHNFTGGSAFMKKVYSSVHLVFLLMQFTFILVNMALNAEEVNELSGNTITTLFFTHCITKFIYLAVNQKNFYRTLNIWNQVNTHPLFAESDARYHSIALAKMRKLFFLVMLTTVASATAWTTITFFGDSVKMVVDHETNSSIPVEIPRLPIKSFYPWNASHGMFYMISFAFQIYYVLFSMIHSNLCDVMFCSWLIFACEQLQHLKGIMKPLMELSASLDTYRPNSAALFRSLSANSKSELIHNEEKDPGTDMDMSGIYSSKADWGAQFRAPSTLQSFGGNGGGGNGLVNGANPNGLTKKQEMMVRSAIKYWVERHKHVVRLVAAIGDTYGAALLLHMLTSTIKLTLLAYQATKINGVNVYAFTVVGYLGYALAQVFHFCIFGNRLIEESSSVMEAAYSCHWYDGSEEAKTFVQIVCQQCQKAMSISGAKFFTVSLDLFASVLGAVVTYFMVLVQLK
Outline: (§1)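 Responses are VUAA1-normalized ΔF: each VOC-evoked calcium signal, (FMAX−F0)/F0 over 30 s after injection, divided by the same line's mean 50 µM VUAA1 response. Cells were doxycycline-induced HEK293 with GCaMP6 and the cognate Drosophila OR, in HEPES buffer pH 7.3; ligands tested 0.01–100 μM.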

[2] = target: T2, Drosophila OR98a (Drosophila melanogaster, UniProt Q9VAZ3); test: Calcium ion fluorescence (GCaMP6) assay, OR98a stable HEK293 cell line; assay type: cell-based; settings: for OR98a response (VUAA1-normalized) at 1 μM / OR98a response (VUAA1-normalized) at 10 μM / OR98a response (VUAA1-normalized) at 100 μM: OR98a cell line; for OR98a response (VUAA1-normalized) at 1 μM: VOC concentration 1 μM; for OR98a response (VUAA1-normalized) at 10 μM: VOC concentration 10 μM; for OR98a response (VUAA1-normalized) at 100 μM: VOC concentration 100 μM
T2 construct: expressed in transfected cells
T2 sequence (Q9VAZ3 1-397): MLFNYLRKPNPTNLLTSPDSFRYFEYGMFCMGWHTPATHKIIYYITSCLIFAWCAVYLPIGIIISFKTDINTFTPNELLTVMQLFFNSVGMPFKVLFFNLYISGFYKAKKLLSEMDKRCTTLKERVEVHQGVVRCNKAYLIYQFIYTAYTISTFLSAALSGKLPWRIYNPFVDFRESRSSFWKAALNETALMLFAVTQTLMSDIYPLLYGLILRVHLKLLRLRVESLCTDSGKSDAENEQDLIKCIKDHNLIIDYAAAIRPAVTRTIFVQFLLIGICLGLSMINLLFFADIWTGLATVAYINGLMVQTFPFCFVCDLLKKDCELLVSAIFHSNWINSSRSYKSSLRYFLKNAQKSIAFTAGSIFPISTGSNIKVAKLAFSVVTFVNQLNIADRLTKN
T2 sequence (Q9VNB5 1-486 partner): T1 sequence (Q9VNB5 1-486 partner)
Outline: as §1

[3] = concentration 1, normalized fluorescence change, values below 0.05 threshold given as 0
[4] = concentration 10, normalized fluorescence change, values below 0.05 threshold given as 0
[5] = concentration 100, normalized fluorescence change, values below 0.05 threshold given as 0
[6] = HEK293, read-out: Average response
[7] = HEK293, read-out: OR98a response (VUAA1-normalized response)
[8] = ligand concentration 1 (unit not given), threshold 0.05, below shown as 0
[9] = ligand concentration 10 (unit not given), threshold 0.05, below shown as 0
[10] = ligand concentration 100 (unit not given), threshold 0.05, below shown as 0
[11] = HEK293, read-out: OR98a Average response (VUAA1-normalized)

## CCCCCO [1-pentanol]
[1]
  activation at 1 µM: 0%
  activation at 10 µM: 0%
  activation at 100 µM: 0%
[1]; cc. 1 µM
  Average response: 0.0261
[1]; cc. 10 µM
  Average response: 0.00
[1]; cc. 100 µM
  Average response: 0.00
[1]; [3]
  DF norm AVERAGE OR71a: 0
[1]; [4]
  DF norm AVERAGE OR71a: 0
[1]; [5]
  DF norm AVERAGE OR71a: 0
[2]; [6]
  activation at 1 µM: 0%
  activation at 10 µM: 2.81%
  activation at 100 µM: 0%
[2]; [7]
  activation at 1 µM: 0%
  activation at 10 µM: 0%
  activation at 100 µM: 0%
[2]; [3]
  DF norm AVERAGE OR98a: 0
[2]; [4]
  DF norm AVERAGE OR98a: 0
[2]; [5]
  DF norm AVERAGE OR98a: 0

## CCOC(=O)c1ccccc1 [ethyl benzoate]
[1]; 1 μM VOC
  OR71a Average response (VUAA1-normalized): 0.04
[1]; 10 μM VOC
  OR71a Average response (VUAA1-normalized): 0.06
[1]; 100 μM VOC
  OR71a Average response (VUAA1-normalized): 0.11
[1]
  activation at 1 µM: 0%
  activation at 10 µM: 5.54%
  activation at 100 µM: 11%
[1]; cc. 1 µM
  Average response: 0.04
[1]; cc. 10 µM
  Average response: 0.0554
[1]; cc. 100 µM
  Average response: 0.11
[1]; [8]
  DF norm AVERAGE OR71a: 0
[1]; [9]
  DF norm AVERAGE OR71a: 0.05543
[1]; [10]
  DF norm AVERAGE OR71a: 0.1075
[2]; [6]
  activation at 1 µM: 3%
  activation at 10 µM: 0%
  activation at 100 µM: 20%
[2]; [11]
  activation at 1 µM: 3%
  activation at 10 µM: 0%
  activation at 100 µM: 20%
[2]; [7]
  activation at 1 µM: 0%
  activation at 10 µM: 0%
  activation at 100 µM: 20%
[2]; [8]
  DF norm AVERAGE OR98a: 0
[2]; [9]
  DF norm AVERAGE OR98a: 0
[2]; [10]
  DF norm AVERAGE OR98a: 0.2048

## C=CC(O)CCCCC (stereo not drawn) [1-octen-3-ol]
[1]
  activation at 1 µM: 0%
  activation at 10 µM: 0%
  activation at 100 µM: 5.55%
[1]; cc. 1 µM
  Average response: 0.00
[1]; cc. 10 µM
  Average response: 0.0223
[1]; cc. 100 µM
  Average response: 0.0555
[1]; [3]
  DF norm AVERAGE OR71a: 0
[1]; [4]
  DF norm AVERAGE OR71a: 0
[1]; [5]
  DF norm AVERAGE OR71a: 0.05555
[2]; [6]
  activation at 1 µM: 0%
  activation at 10 µM: 1.13%
  activation at 100 µM: 21%
[2]; [11]
  activation at 1 µM: 0%
  activation at 10 µM: 1%
  activation at 100 µM: 21%
[2]; [7]
  activation at 1 µM: 0%
  activation at 10 µM: 0%
  activation at 100 µM: 21%
[2]; [3]
  DF norm AVERAGE OR98a: 0
[2]; [4]
  DF norm AVERAGE OR98a: 0
[2]; [5]
  DF norm AVERAGE OR98a: 0.2102

## Cc1ccc(C(C)C)cc1 [p-cymene]
[1]
  OR71a response (VUAA1-normalized) at 1 μM: 0.00
  OR71a response (VUAA1-normalized) at 10 μM: 0.00
  OR71a response (VUAA1-normalized) at 100 μM: 0.00
[1]; cc. 1 µM
  Average response: 0.00
[1]; cc. 10 µM
  Average response: 0.023
[1]; cc. 100 µM
  Average response: 0.00
[1]; [8]
  DF norm AVERAGE OR71a: 0
[1]; [9]
  DF norm AVERAGE OR71a: 0
[1]; [10]
  DF norm AVERAGE OR71a: 0
[2]; [6]
  activation at 1 µM: 0%
  activation at 10 µM: 4%
  activation at 100 µM: 3.65%
[2]
  OR98a response (VUAA1-normalized) at 1 μM: 0.00
  OR98a response (VUAA1-normalized) at 10 μM: 0.00
  OR98a response (VUAA1-normalized) at 100 μM: 0.00
[2]; [8]
  DF norm AVERAGE OR98a: 0
[2]; [9]
  DF norm AVERAGE OR98a: 0
[2]; [10]
  DF norm AVERAGE OR98a: 0

## CCCOC(C)=O [propyl acetate]
[1]
  OR71a response (VUAA1-normalized) at 1 μM: 0.00
  OR71a response (VUAA1-normalized) at 10 μM: 0.00
  OR71a response (VUAA1-normalized) at 100 μM: 0.00
[1]; cc. 1 µM
  Average response: 0.0434
[1]; cc. 10 µM
  Average response: 0.025
[1]; cc. 100 µM
  Average response: 0.00
[1]; [8]
  DF norm AVERAGE OR71a: 0
[1]; [9]
  DF norm AVERAGE OR71a: 0
[1]; [10]
  DF norm AVERAGE OR71a: 0
[2]; [6]
  activation at 1 µM: 10%
  activation at 10 µM: 8%
  activation at 100 µM: 11%
[2]; [11]
  activation at 1 µM: 10%
  activation at 10 µM: 8%
  activation at 100 µM: 11%
[2]
  OR98a response (VUAA1-normalized) at 1 μM: 0.10
  OR98a response (VUAA1-normalized) at 10 μM: 0.08
  OR98a response (VUAA1-normalized) at 100 μM: 0.11
[2]; [8]
  DF norm AVERAGE OR98a: 0.09538
[2]; [9]
  DF norm AVERAGE OR98a: 0.07848
[2]; [10]
  DF norm AVERAGE OR98a: 0.1069

## COC(=O)c1ccccc1 [methyl benzoate]
[1]
  OR71a response (VUAA1-normalized) at 1 μM: 0.00
  OR71a response (VUAA1-normalized) at 10 μM: 0.00
  OR71a response (VUAA1-normalized) at 100 μM: 0.00
[1]; cc. 1 µM
  Average response: 0.00
[1]; cc. 10 µM
  Average response: 0.00
[1]; cc. 100 µM
  Average response: 0.0121
[1]; [8]
  DF norm AVERAGE OR71a: 0
[1]; [9]
  DF norm AVERAGE OR71a: 0
[1]; [10]
  DF norm AVERAGE OR71a: 0
[2]; [6]
  activation at 1 µM: 7.5%
  activation at 10 µM: 0%
  activation at 100 µM: 12%
[2]; [11]
  activation at 1 µM: 7%
  activation at 10 µM: 0%
  activation at 100 µM: 12%
[2]
  OR98a response (VUAA1-normalized) at 1 μM: 0.075
  OR98a response (VUAA1-normalized) at 10 μM: 0.00
  OR98a response (VUAA1-normalized) at 100 μM: 0.12
[2]; [8]
  DF norm AVERAGE OR98a: 0.07495
[2]; [9]
  DF norm AVERAGE OR98a: 0
[2]; [10]
  DF norm AVERAGE OR98a: 0.1166

— publication PMC10709440, “High-throughput ligand profile characterization in novel cell lines expressing seven heterologous insect olfactory receptors for the detection of volatile plant biomarkers” (Scientific Reports, 2023)
